Source: patent US8815927B2, “Bivalent diazo bicyclic Smac mimetics and the uses thereof” (The Regents of the University of Michigan, priority 2009, dated 2014)

B1: mature Smac protein: second mitochondria-derived activator of caspases, mature polypeptide (protein, UniProt Q9NR28 22-239, looked up)
Diablo IAP-binding …: LCVPVVANFKKRCFSELIRPWHKTVTIGFGVTLCAVPIAQKSEPHSLSSEALMRRAVSLVTDSTSTFLSQTTYALIEAITEYTKAVYTLTSLYRQYTSLLGKMNSEEEDEVWQVIIGARAEMTSKHQEYLKLETTWMTAVGLSEMAAEAAYQTGADQASITARNHIQLVKLQVEEVHQLSRKAETKLAEAQIEELRQKTQEEGEERAESEQEAYLRED

What was measured:
cIAP1 BIR3 Protein = cIAP1 BIR3 Protein (Homo sapiens (Human), UniProt Q13490); experiment: Fluorescence polarization-based competitive binding assay, cIAP-1 BIR3; settings: 10 nM cIAP-1 BIR3 protein, 2 nM SM5F tracer
Protocol: (§1) An in vitro fluorescence polarization (FP) based binding assay was used to test the binding ability of the compounds of the present invention to certain IAP proteins (Nikolovska-Coleska et al., Anal. Biochem. 332:261-73 (2004)).
(§2) Human cIAP-1 BIR3-only (residues 253-363) and cIAP2 BIR3-only (residues 238-349) were cloned into pHis-TEV vector, produced and purified using the same method as for the XIAP BIR3 protein.
(§3) In competitive binding experiments, 10 nM of cIAP-1 BIR3 protein and 2 nM of SM5F tracer were used. […] In competitive binding experiments, 25 nM of cIAP-2 BIR3 protein and 2 nM of SM5F tracer were used.
(§4) For each competitive binding experiment, polarization values were measured after 2-3 hours incubation using an Ultra plate reader. The IC50 value, the inhibitor concentration at which 50% of bound tracer was displaced, was determined from the plot using nonlinear least-squares analysis. Curve fitting was performed using the PRISM software (GraphPad Software, Inc., San Diego, Calif.). Ki value for each compound was calculated based upon the IC50 value using a previously reported algorithm and its associated computer program (Nikolovska-Coleska et al., Anal. Biochem. 332:261-73 (2004)).

[1] = molecular target: XIAP Linker-BIR2-BIR3 Protein (Homo sapiens (Human), UniProt P98170); experiment: Fluorescence polarization-based binding assay, XIAP Linker-BIR2-BIR3; settings: 3 nM XIAP protein (residues 120-356), 1 nM Smac2-F
From the text: An in vitro fluorescence polarization (FP) based binding assay was used to test the binding ability of the compounds of the present invention to XIAP linker-BIR2-BIR3 protein (Nikolovska-Coleska et al., Anal. Biochem. 374:87-98 (2008)).
For this assay a bivalent Smac peptido-mimetic labeled with a fluorescence tag (FAM), termed Smac2-F, was employed. […] The recombinant XIAP Linker-BIR2-BIR3 protein of human XIAP (residues 120-356) fused to His-tag was stable and soluble, and was used for the FP-based binding assay.
For the competitive binding experiments, a tested compound was incubated with 3 nM of XIAP protein (residues 120-356) and 1 nM of Smac2-F in the assay buffer (100 mM potassium phosphate, pH 7.5; 100 μg/ml bovine gamma globulin; 0.02% sodium azide) in black, round-bottom plates. For each experiment, the controls include XIAP and Smac2-F peptide (equivalent to 0% inhibition), and Smac-2F only (equal to 100% of inhibition). The polarization values are measured after 2 hours incubation, using the Ultra plate reader. The IC50 value, the inhibitor concentration at which 50% of bound tracer was displaced, is determined from the plot using nonlinear least-squares analysis. Curve fitting is performed using GraphPad Prism® software.

[2] = tested on: MDA-MB-231 human breast cancer cell line; experiment: Cancer cell growth inhibition, WST-8; assay type: cell-based; settings: MDA-MB-231, 96 h, 4 days
Protocol: (§5) The effect of the compounds of the present invention on the growth of various cancer cell lines was tested. Cells were seeded in 96-well flat bottom cell culture plates at a density of 3000 cells/well with a tested compound and incubated at 37° C. in an atmosphere of 95% air and 5% CO2 for 4 days. The rate of cell growth inhibition after treatment with different concentrations of the compound was determined using a WST-8 kit (2-(2-methoxy-4-nitrophenyl)-3-(4-nitrophenyl)-5-(2,4 disulfophenyl)-2H-tetrazolium monosodium salt; Dojindo Molecular Technologies, Inc., Gaithersburg, Md.). WST-8 was added at a final concentration of 10% to each well, and then the plates were incubated at 37° C. for 2-3 hrs. The absorbance of the samples was measured at 450 nm using a ULTRA Tecan Reader (Molecular Device). The concentration of the tested compound that inhibited cell growth by 50% (IC50) was calculated by comparing absorbance in untreated cells and the cells treated with the tested compound.

[3] = tested on: SK-OV-3 ovarian cancer cell line; experiment: Cancer cell growth inhibition, WST-8; assay type: cell-based; settings: Homo sapiens, SK-OV-3, 96 h, 4 days
Protocol: as §5

cIAP2 BIR3 Protein = cIAP2 BIR3 Protein (Homo sapiens (Human), UniProt Q13489); experiment: Fluorescence polarization-based competitive binding assay, cIAP-2 BIR3; settings: 25 nM cIAP-2 BIR3 protein, 2 nM SM5F tracer
Protocol: as §1, §2, §3, §4

[4] = tested on: breast cancer MDA-MB-231 cell line; experiment: Induction of cell death, trypan blue exclusion assay; assay type: cell-based, human; settings: MDA-MB-231, 48 hours, FIG. 1
Protocol: (§6) The ability of SM-1258 and SM-1267 to induce cell death was tested in the breast cancer MDA-MB-231 (FIG. 1) and ovarian cancer SK-OV-3 (FIG. 2) cell lines. Cells were treated with SM-1258 and SM-1267 for 48 hours and cell viability was determined using the trypan blue exclusion assay.

[5] = tested on: ovarian cancer SK-OV-3 cell line; experiment: as above; assay type: cell-based, human; settings: SK-OV-3, 48 hours, FIG. 2
Protocol: as §6

XIAP BIR3 = XIAP BIR3 (Homo sapiens (Human), UniProt P98170); settings: cited from earlier work
Sequence of XIAP BIR3 (P98170 241-356): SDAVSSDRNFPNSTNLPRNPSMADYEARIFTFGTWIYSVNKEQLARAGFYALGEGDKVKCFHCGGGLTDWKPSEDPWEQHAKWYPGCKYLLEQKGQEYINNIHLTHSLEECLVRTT

Sequence of XIAP Linker-BIR2-BIR3 Protein (P98170 120-356): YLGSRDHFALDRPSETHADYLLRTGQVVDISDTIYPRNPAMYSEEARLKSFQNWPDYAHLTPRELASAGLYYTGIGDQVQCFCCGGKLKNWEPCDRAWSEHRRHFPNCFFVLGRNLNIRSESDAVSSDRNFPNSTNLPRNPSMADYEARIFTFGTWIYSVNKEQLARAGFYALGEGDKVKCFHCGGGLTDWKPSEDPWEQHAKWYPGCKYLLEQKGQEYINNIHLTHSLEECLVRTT
Sequence of cIAP2 BIR3 Protein (Q13489 238-349): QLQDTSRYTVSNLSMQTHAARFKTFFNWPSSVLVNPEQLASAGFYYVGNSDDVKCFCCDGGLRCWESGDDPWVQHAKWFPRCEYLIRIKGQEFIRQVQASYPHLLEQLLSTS
Sequence of cIAP1 BIR3 Protein (Q13490 253-363): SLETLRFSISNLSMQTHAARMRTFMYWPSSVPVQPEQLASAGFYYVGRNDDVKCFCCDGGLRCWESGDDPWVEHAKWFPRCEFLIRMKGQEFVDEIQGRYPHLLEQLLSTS

Row | Molecule | IC50 (cIAP1 BIR3 Protein) | IC50 [1] | IC50 [2] | IC50 [3] | IC50 (cIAP2 BIR3 Protein) | induction of cell death [4] | induction of cell death [5] | Kd (XIAP BIR3)
1 | CN[C@@H](C)C(=O)N[C@H]1CN(C(=O)CCCCCCCCCCC(=O)N2CC[C@H]3CC[C@@H](c4nc5cccc(-c6ccccc6)c5[nH]4)N3C(=O)[C@@H](NC(=O)[C@H](C)NC)C2)CC[C@H]2CC[C@@H](c3nc4c(-c5ccccc5)cccc4[nH]3)N2C1=O [SM-1258] | < 50 nM | < 10 nM | < 10 nM | < 20 nM |  |  |  | 
2 | CN[C@@H](C)C(=O)N[C@H]1CN(C(=O)CCCCOCCCCC(=O)N2CC[C@H]3CC[C@@H](c4nc5cccc(-c6ccccc6)c5[nH]4)N3C(=O)[C@@H](NC(=O)[C@H](C)NC)C2)CC[C@H]2CC[C@@H](c3nc4c(-c5ccccc5)cccc4[nH]3)N2C1=O [SM-1259] | < 10 nM | < 10 nM | < 10 nM |  | < 20 nM |  |  | 
3 | CN[C@@H](C)C(=O)N[C@H]1CN(C(=O)CCCCCCCCC(=O)N2CC[C@H]3CC[C@@H](c4nc5cccc(-c6ccccc6)c5[nH]4)N3C(=O)[C@@H](NC(=O)[C@H](C)NC)C2)CC[C@H]2CC[C@@H](c3nc4c(-c5ccccc5)cccc4[nH]3)N2C1=O [SM-1267] | < 10 nM | < 10 nM | < 10 nM |  | < 50 nM | induced cell death | induced cell death | 
4 | CN[C@@H](C)C(=O)N[C@H]1CN(C(=O)CCCCCCC(=O)N2CC[C@H]3CC[C@@H](c4nc5cccc(-c6ccccc6)c5[nH]4)N3C(=O)[C@@H](NC(=O)[C@H](C)NC)C2)CC[C@H]2CC[C@@H](c3nc4c(-c5ccccc5)cccc4[nH]3)N2C1=O [SM-1266] | < 10 nM | < 10 nM | < 10 nM |  | < 20 nM |  |  | 
5 | CN[C@@H](C)C(=O)N[C@H]1CN(C(=O)CCCCC(=O)N2CC[C@H]3CC[C@@H](c4nc5cccc(-c6ccccc6)c5[nH]4)N3C(=O)[C@@H](NC(=O)[C@H](C)NC)C2)CC[C@H]2CC[C@@H](c3nc4c(-c5ccccc5)cccc4[nH]3)N2C1=O [SM-1265] | < 10 nM | < 50 nM | < 50 nM |  | < 10 nM |  |  | 
6 | B1 |  |  |  |  |  |  |  | 420 nM
